Assay results reported in patent US20080194584A1, “Nitrogen Heteroaromatic Compounds Which Bind To The Active Site Of Protein Kinase Enzymes” (priority 2004, published 2008).

test system: Rho kinase (ROK, ROCK); assay: Rho kinase inhibitory activity (ROK activity); type: biochemical; parameters: key: +: active; ++: more active; +++: very active; conditions: assays conducted at 1-100 μM

ROK activity | SMILES
+++ | Fc1cc(CNc2cccc(-c3ccncc3)c2)ccc1Cl [Example 2, (4-Chloro-3-fluoro-benzyl)-(3-pyridin-4-yl-phenyl)-amine]
+++ | Fc1cc(CNc2cncc(-c3ccncc3F)c2)ccc1Cl [Example 3, (4-Chloro-3-fluoro-benzyl)-(3′-fluoro-[3,4′]bipyridinyl-5-yl)-amine]
+ | Fc1cc(CNc2cncc(-c3ccnc(Cl)c3)c2)ccc1Cl [Example 4, (2′-Chloro-[3,4′]bipyridinyl-5-yl)-(4-chloro-3-fluoro-benzyl)-amine]
+++ | Fc1cc(CNc2cncc(-c3ccncc3Cl)c2)ccc1Cl [Example 5, (3′-Chloro-[3,4′]bipyridinyl-5-yl)-(4-chloro-3-fluoro-benzyl)-amine]
+ | Fc1cc(CNc2cncc(-c3ccnc(Cl)c3Cl)c2)ccc1Cl [Example 6, (4-Chloro-3-fluoro-benzyl)-(2′,3′-dichloro-[3,4′]bipyridinyl-5-yl)-amine]
++ | Fc1cc(CNc2cncc(-c3cccc4ncccc34)c2)ccc1Cl [Example 7, (4-Chloro-3-fluoro-benzyl)-(5-quinolin-5-yl-pyridin-3-yl)-amine]
+ | Fc1cc(CNc2cncc(-c3ccnc(Cl)c3F)c2)ccc1Cl [Example 8, (4-Chloro-3-fluoro-benzyl)-(2′-chloro-3′-fluoro-[3,4′]bipyridinyl-5-yl)-amine]
+++ | Fc1cc(Cl)ccc1CNc1cncc(-c2ccncc2)c1 [Example 19, [3,4′]Bipyridinyl-5-yl-(4-chloro-2-fluoro-benzyl)-amine]

Further lines, the molecule ahead of its results:

SMILES | ROK activity
O=C(Cc1ccc(Cl)cc1)Nc1cncc(-c2ccncc2)c1 [Example 1, N-[3,4′]Bipyridinyl-5-yl-2-(4-chloro-phenyl)-acetamide] | +
c1ccc(CNc2cncc(-c3ccncc3)c2)cc1 [Example 9, Benzyl-[3,4′]bipyridinyl-5-yl-amine] | +++
Clc1cccc(Cl)c1CNc1cncc(-c2ccncc2)c1 [Example 10, [3,4′]Bipyridinyl-5-yl-(2,6-dichloro-benzyl)-amine] | +
FC(F)(F)c1cc(Cl)ccc1CNc1cncc(-c2ccncc2)c1 [Example 11, [3,4′]Bipyridinyl-5-yl-(4-chloro-2-trifluoromethyl-benzyl)-amine] | ++
CC(O)CNc1cc(-c2cncc(NCc3ccc(Cl)cc3)c2)ccn1 (centres unmarked) [Example 12, 1-[5-(4-Chloro-benzylamino)-[3,4′]bipyridinyl-2′-ylamino]-propan-2-ol] | +
CC(C)(C)OC(=O)N1CCCC(CNc2cncc(-c3ccncc3)c2)C1 (centres unmarked) [Example 13, 3-([3,4′]Bipyridinyl-5-ylaminomethyl)-piperidine-1-carboxylic acid tert-butyl ester] | +
CC(C)(C)OC(=O)N1CCC(CNc2cncc(-c3ccncc3)c2)CC1 [Example 14, 4-([3,4′]Bipyridinyl-5-ylaminomethyl)-piperidine-1-carboxylic acid tert-butyl ester] | +
CC(C)(C)OC(=O)N1CCC(Nc2cncc(-c3ccncc3)c2)CC1 [Example 15, 4-([3,4′]Bipyridinyl-5-ylamino)-piperidine-1-carboxylic acid tert-butyl ester] | +
c1cc(-c2cncc(NCC3CCCNC3)c2)ccn1 (centres unmarked) [Example 16, [3,4′]Bipyridinyl-5-yl-piperidin-3-ylmethyl-amine] | ++
FC(F)(F)c1cccc(CNc2cncc(-c3ccncc3)c2)c1 [Example 17, [3,4′]Bipyridinyl-5-yl-(3-trifluoromethyl-benzyl)-amine] | ++
FC(F)(F)c1ccc(CNc2cncc(-c3ccncc3)c2)cc1 [Example 18, [3,4′]Bipyridinyl-5-yl-(4-trifluoromethyl-benzyl)-amine] | +++
O=C(Nc1cncc(-c2ccncc2)c1)c1ccc(Cl)cc1 [Example 20, N-[3,4′]Bipyridinyl-5-yl-4-chloro-benzamide] | +
O=S(=O)(Nc1cncc(-c2ccncc2)c1)c1ccc(Cl)cc1 [Example 21, N-[3,4′]Bipyridinyl-5-yl-4-chloro-benzenesulfonamide] | +
Fc1ccc(CNc2cncc(-c3ccncc3)c2)c(F)c1 [Example 22, [3,4′]Bipyridinyl-5-yl-(2,4-difluoro-benzyl)-amine] | +++

same assay, conditions: assays conducted at 1-100 μM, listed as N-[3,4′]Bipyridinyl-5-yl-2-(4-chloro-phenyl)-acetamide

SMILES | ROK activity
O=C(Cc1ccc(Cl)cc1)Nc1cncc(-c2ccncc2)c1 [Example 1, N-[3,4′]Bipyridinyl-5-yl-2-(4-chloro-phenyl)-acetamide] | ++
